Assay results: US4257941A, “Polycyclic nitrogen-containing compounds” (BASF Aktiengesellschaft, priority 1976, dated 1981)

What was measured:
[1] = test system: oats; assay: Growth height of oats, greenhouse (Example 10); assay type: in vivo, oats (Flamingskrone); conditions: for Plant height relative: control 100
From the text: (§1) In the greenhouse, the four cereals wheat ("Opal" variety), rye ("Petkuser"), barley ("Villa") and oats ("Flamingskrone") were sown in plastic dishes 11.5 cm in diameter in a sandy loam adequately supplied with nutrients. The active ingredients were applied at various rates to the soil and to the leaves. When applied to the soil, the active ingredient were sprayed onto the surface of the soil on the day of sowing; in the case of leaf treatment, the leaves were sprayed in the usual manner at a growth height of the plants of 10 cm. During the 18 day growth period, the treated plants grew much more slowly than the untreated control, a fact later confirmed by measurements of the stem length. Measurements were taken of 100 plants from each series.
(§2) The prior art agent used for comparison purposes was N-2-chloroethyl-N,N,N-trimethylammonium chloride (CCC; German Printed Application DAS No. 1,294,734).

[2] = test system: wheat; assay: Growth height of wheat, greenhouse (Example 7); assay type: in vivo, wheat (Opal variety); conditions: for Plant height relative: control 100
From the text: as §1, §2

[3] = test system: rye; assay: Growth height of rye, greenhouse (Example 8); assay type: in vivo, rye (Petkuser); conditions: soil; for Plant height relative: control 100
From the text: as §1, §2

[4] = test system: barley; assay: Growth height of barley, greenhouse (Example 9); assay type: in vivo, barley (Villa); conditions: soil; for Plant height relative: control 100
From the text: as §1, §2

`Brc1ccc(N2N=NC3C4CC(C5N=NC45)C32)cc1` (centres unmarked) [drawing 357] was tested, and the Plant height ([1]; soil, 0.5 kg/ha) was 28.0 cm, the Plant height relative ([1]; soil, 0.5 kg/ha) was 100 and the Plant height ([1]; soil, 1.0 kg/ha) was 26.5 cm. It also gave a Plant height relative ([1]; soil, 1.0 kg/ha) of 94.6, a Plant height ([1]; soil, 2.0 kg/ha) of 24.5 cm and a Plant height relative ([1]; soil, 2.0 kg/ha) of 87.5. It also gave a Plant height ([1]; soil, 6.0 kg/ha) of 15.5 cm and a Plant height relative ([1]; soil, 6.0 kg/ha) of 55.4.
`Clc1ccc(N2N=NC3C4CC(C5N=NC45)C32)cc1` (centres unmarked) [drawing 346] gave a Plant height ([2]; leaf, 0.125 kg/ha) of 24.0 cm, a Plant height relative ([2]; leaf, 0.125 kg/ha) of 80.0 and a Plant height ([2]; leaf, 0.5 kg/ha) of 22.0 cm. The Plant height relative ([2]; leaf, 0.5 kg/ha) was 73.3, the Plant height ([2]; leaf, 1.0 kg/ha) was 20.0 cm and the Plant height relative ([2]; leaf, 1.0 kg/ha) was 66.6. It also gave a Plant height ([2]; leaf, 2.0 kg/ha) of 19.0 cm, a Plant height relative ([2]; leaf, 2.0 kg/ha) of 63.3 and a Plant height ([2]; leaf, 4.0 kg/ha) of 17.5 cm. For the same molecule, the Plant height relative ([2]; leaf, 4.0 kg/ha) was 58.3.
`Brc1ccc(N2N=NC3C4CC(C5N=NC45)C32)cc1` (centres unmarked) [drawing 349] was tested, and the Plant height ([3]; 0.5 kg/ha) was 23.0 cm, the Plant height relative ([3]; 0.5 kg/ha) was 79.3 and the Plant height ([3]; 1.0 kg/ha) was 22.5 cm. It also gave a Plant height relative ([3]; 1.0 kg/ha) of 77.6, a Plant height ([3]; 2.0 kg/ha) of 19.0 cm and a Plant height relative ([3]; 2.0 kg/ha) of 65.5. It also gave a Plant height ([3]; 6.0 kg/ha) of 9.0 cm and a Plant height relative ([3]; 6.0 kg/ha) of 31.0.
Work on `Clc1ccc(N2N=NC3C4CC(C5N=NC45)C32)cc1` (centres unmarked) [drawing 356] yielded a Plant height ([1]; soil, 0.5 kg/ha) of 25.0 cm, a Plant height relative ([1]; soil, 0.5 kg/ha) of 89.3 and a Plant height ([1]; soil, 1.0 kg/ha) of 24.0 cm. It also gave a Plant height relative ([1]; soil, 1.0 kg/ha) of 85.7, a Plant height ([1]; soil, 2.0 kg/ha) of 21.0 cm and a Plant height relative ([1]; soil, 2.0 kg/ha) of 75.0. For the same molecule, the Plant height ([1]; soil, 6.0 kg/ha) was 15.0 cm and the Plant height relative ([1]; soil, 6.0 kg/ha) was 53.6.
In the case of `Clc1ccc(N2N=NC3C4CC(C5N=NC45)C32)cc1` (centres unmarked) [drawing 358], the Plant height ([1]; leaf, 0.125 kg/ha) is reported as 23.5 cm, the Plant height relative ([1]; leaf, 0.125 kg/ha) is reported as 83.9 and the Plant height ([1]; leaf, 0.5 kg/ha) is reported as 22.5 cm. It also gave a Plant height relative ([1]; leaf, 0.5 kg/ha) of 80.4, a Plant height ([1]; leaf, 1.0 kg/ha) of 21.0 cm and a Plant height relative ([1]; leaf, 1.0 kg/ha) of 75.0. For the same molecule, the Plant height ([1]; leaf, 2.0 kg/ha) was 19.0 cm, the Plant height relative ([1]; leaf, 2.0 kg/ha) was 67.9 and the Plant height ([1]; leaf, 4.0 kg/ha) was 17.0 cm. It also gave a Plant height relative ([1]; leaf, 4.0 kg/ha) of 60.7.
With `Clc1ccc(N2N=NC3C4CC(C5N=NC45)C32)cc1` (centres unmarked) [drawing 348] the Plant height ([3]; 0.5 kg/ha) was 22.5 cm, the Plant height relative ([3]; 0.5 kg/ha) was 77.6 and the Plant height ([3]; 1.0 kg/ha) was 19.0 cm. It also gave a Plant height relative ([3]; 1.0 kg/ha) of 65.5, a Plant height ([3]; 2.0 kg/ha) of 13.0 cm and a Plant height relative ([3]; 2.0 kg/ha) of 44.8. It also gave a Plant height ([3]; 6.0 kg/ha) of 8.5 cm and a Plant height relative ([3]; 6.0 kg/ha) of 29.3.
`Brc1ccc(N2N=NC3C4CC(C5N=NC45)C32)cc1` (centres unmarked) [drawing 353] showed a Plant height ([4]; 0.5 kg/ha) of 30.5 cm, a Plant height relative ([4]; 0.5 kg/ha) of 96.8 and a Plant height ([4]; 1.0 kg/ha) of 29.0 cm. The Plant height relative ([4]; 1.0 kg/ha) was 92.1, the Plant height ([4]; 2.0 kg/ha) was 24.5 cm and the Plant height relative ([4]; 2.0 kg/ha) was 77.8. It also gave a Plant height ([4]; 6.0 kg/ha) of 19.0 cm and a Plant height relative ([4]; 6.0 kg/ha) of 60.3.
Work on `Brc1ccc(N2N=NC3C4CC(C5N=NC45)C32)cc1` (centres unmarked) [drawing 345] yielded a Plant height ([2]; soil, 0.5 kg/ha) of 27.5 cm, a Plant height relative ([2]; soil, 0.5 kg/ha) of 88.7 and a Plant height ([2]; soil, 1.0 kg/ha) of 22.5 cm. It also gave a Plant height relative ([2]; soil, 1.0 kg/ha) of 72.6, a Plant height ([2]; soil, 2.0 kg/ha) of 15.5 cm and a Plant height relative ([2]; soil, 2.0 kg/ha) of 50.0. The Plant height ([2]; soil, 6.0 kg/ha) was 11.5 cm and the Plant height relative ([2]; soil, 6.0 kg/ha) was 31.7.
